Results taken from ChEMBL document CHEMBL1201862, “PubChem BioAssay data set” (2004).
Activity calls are given as the source filed them.

Tests used:
[1] = target: Cytochrome P450 2D6 (Homo sapiens, UniProt P10635);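 note: CYP2D6 member of a cytochrome P450 panel assay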
[2] = target: T1, Cytochrome P450 1A2 (Homo sapiens, UniProt P05177);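 note: PubChem cytochrome P450 panel assay, CYP1A2 panel member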
T1 sequence (P05177 whole entry): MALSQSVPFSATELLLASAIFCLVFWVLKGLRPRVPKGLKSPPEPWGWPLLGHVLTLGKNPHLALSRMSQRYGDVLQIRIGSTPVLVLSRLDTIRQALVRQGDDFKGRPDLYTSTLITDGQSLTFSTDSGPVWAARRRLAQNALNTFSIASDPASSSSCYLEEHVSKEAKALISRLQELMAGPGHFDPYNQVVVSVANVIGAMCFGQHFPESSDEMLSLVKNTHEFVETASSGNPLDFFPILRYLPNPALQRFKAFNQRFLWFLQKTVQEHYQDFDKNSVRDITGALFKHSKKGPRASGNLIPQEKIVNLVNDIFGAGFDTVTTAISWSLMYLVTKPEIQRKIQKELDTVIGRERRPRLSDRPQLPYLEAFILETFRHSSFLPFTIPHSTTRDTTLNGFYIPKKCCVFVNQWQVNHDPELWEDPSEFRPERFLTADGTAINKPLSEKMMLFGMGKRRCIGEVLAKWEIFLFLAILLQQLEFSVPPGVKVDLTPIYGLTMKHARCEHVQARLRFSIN

[3] = target: T2, Corticotropin-releasing factor receptor 2/Corticotropin-releasing factor-binding protein (Homo sapiens, UniProt P24387+Q13324); assay: Dose Response confirmation of uHTS hits for small molecule antagonists of the CRF-binding protein and CRF-R2 receptor complex.; format: functional; settings: read-out: IC50_Mean
T2 sequence (Q13324 whole entry): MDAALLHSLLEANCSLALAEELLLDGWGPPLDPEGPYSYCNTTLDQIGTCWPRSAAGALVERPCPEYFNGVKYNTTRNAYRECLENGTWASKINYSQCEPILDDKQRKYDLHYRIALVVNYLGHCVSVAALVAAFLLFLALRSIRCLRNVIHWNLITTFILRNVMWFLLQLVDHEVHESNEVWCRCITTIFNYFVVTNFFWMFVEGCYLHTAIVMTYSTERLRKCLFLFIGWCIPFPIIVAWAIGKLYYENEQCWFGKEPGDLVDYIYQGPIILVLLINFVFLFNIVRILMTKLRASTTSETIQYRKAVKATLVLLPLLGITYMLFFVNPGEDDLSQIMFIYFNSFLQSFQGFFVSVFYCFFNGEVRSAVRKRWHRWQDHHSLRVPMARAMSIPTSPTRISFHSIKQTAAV
T2 sequence (P24387 whole entry): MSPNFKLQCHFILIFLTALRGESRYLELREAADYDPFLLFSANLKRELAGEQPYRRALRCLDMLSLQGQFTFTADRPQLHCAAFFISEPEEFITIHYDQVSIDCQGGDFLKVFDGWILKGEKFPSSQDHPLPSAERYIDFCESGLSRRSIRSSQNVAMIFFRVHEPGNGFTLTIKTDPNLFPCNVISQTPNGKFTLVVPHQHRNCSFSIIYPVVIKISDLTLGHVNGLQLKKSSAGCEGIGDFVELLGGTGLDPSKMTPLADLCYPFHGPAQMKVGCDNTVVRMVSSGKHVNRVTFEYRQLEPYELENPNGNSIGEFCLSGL

[4] = target: T2, Corticotropin-releasing factor receptor 2/Corticotropin-releasing factor-binding protein; assay: activators of CRF receptor 2 with binding protein – uHTS hits, confirmation (AID 602473); format: functional; settings: read-out: EC50_Mean
[5] = target: Luciferin 4-monooxygenase (Photinus pyralis, UniProt P08659); assay: firefly luciferase enzyme inhibitors, dose response, biochemical, luminescence (AID 1891)
[6] = Luminescence Cell-Based Dose Confirmation HTS to Identify Inhibitors of Platelet Dense Granule Release. [Related pubchem assays: 1663 (Primary HTS), 1678 (Summary of Project)]; format: functional
[7] = target: Cytochrome P450 2C19 (Homo sapiens, UniProt P33261); assay: Cytochrome panel assay with activity outcomes. Panel member name: p450-cyp2c19 Compounds with AC50 equal or less than 10 uM are considered active; format: functional; settings: read-out: AC50
[8] = target: Cytochrome P450 3A4 (Homo sapiens, UniProt P08684);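 note: CYP3A4 tested as one member of a cytochrome P450 panel screen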
[9] = inhibitors of firefly luciferase expression or activity, dose response, H4 neuroglioma cells, luminescence (AID 1990); format: functional, cell-based
[10] = Luminescence Cell-Based Dose Response HTS to Identify Inhibitors of 5'UTR Stem-Loop Driven Prion Protein mRNA Translation in H4 Neuroglioblastoma Cells. [Related pubchem assays: 1827 (Project Summary), 1813 (Primary HTS)]; format: functional
[11] = inhibitors of SNCA 5'UTR-driven reporter translation, confirmation, H4 neuroglioma cells, luminescence (AID 1988); format: functional, cell-based
[12] = tested on: INS1; assay: beta cell apoptosis inhibitors, cytokine rescue, dose response, luminescence, retest (AID 449756); format: functional, cell-based; settings: Rattus norvegicus;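 note: cell death triggered by IL-1 beta plus TNF-alpha plus IFN-gamma mixture; protective hits raise ATP signal compared with cytokine alone wells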
[13] = target: Paired box protein Pax-8 (Homo sapiens, UniProt Q06710); assay: inhibitors of PAX8-driven TPO luciferase reporter, dose response, RMG-I cells, cherry-pick (AID 687027); format: functional, cell-based;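 note: luciferase reporter driven by Pax8 target thyroperoxidase promoter measured by SteadyGlo luminescence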
[14] = target: Cytochrome P450 2C9 (Homo sapiens, UniProt P11712)
[15] = NIH-3T3 fibroblast cytotoxicity, dose response, cytotoxicity control, cell-based, fluorescence, Alamar Blue, secondary assay (AID 2327); format: functional;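 note: NIH-3T3 mouse fibroblasts cultured with fluconazole at 8 µg/mL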

Chain of Cytochrome P450 2C9 (P11712 whole entry): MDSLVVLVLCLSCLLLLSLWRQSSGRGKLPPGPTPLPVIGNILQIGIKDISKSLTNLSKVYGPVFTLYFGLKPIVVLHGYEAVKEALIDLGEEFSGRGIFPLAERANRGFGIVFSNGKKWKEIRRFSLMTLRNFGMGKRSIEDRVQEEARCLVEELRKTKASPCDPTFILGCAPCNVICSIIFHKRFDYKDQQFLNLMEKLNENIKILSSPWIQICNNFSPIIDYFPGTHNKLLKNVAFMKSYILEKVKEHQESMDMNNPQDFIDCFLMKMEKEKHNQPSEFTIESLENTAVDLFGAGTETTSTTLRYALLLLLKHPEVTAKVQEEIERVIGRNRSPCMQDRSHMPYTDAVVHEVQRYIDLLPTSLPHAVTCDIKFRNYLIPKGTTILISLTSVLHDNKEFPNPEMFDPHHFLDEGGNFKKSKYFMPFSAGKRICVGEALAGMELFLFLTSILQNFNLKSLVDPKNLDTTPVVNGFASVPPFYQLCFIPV
Chain of Luciferin 4-monooxygenase (P08659 whole entry): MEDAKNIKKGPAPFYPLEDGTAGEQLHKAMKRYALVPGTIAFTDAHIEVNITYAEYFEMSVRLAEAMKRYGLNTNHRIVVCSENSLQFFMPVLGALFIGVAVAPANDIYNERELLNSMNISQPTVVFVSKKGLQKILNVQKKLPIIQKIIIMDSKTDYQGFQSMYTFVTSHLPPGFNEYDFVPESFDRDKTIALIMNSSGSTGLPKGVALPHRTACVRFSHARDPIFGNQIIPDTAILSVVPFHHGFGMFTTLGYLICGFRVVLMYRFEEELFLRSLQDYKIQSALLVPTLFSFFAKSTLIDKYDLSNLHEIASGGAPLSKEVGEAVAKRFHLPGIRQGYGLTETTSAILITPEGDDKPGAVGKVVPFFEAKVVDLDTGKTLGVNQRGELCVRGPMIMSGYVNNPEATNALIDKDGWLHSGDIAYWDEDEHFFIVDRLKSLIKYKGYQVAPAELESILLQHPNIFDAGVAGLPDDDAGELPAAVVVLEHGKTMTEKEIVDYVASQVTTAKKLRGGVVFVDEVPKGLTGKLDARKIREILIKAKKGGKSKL
Chain of Paired box protein Pax-8 (Q06710 whole entry): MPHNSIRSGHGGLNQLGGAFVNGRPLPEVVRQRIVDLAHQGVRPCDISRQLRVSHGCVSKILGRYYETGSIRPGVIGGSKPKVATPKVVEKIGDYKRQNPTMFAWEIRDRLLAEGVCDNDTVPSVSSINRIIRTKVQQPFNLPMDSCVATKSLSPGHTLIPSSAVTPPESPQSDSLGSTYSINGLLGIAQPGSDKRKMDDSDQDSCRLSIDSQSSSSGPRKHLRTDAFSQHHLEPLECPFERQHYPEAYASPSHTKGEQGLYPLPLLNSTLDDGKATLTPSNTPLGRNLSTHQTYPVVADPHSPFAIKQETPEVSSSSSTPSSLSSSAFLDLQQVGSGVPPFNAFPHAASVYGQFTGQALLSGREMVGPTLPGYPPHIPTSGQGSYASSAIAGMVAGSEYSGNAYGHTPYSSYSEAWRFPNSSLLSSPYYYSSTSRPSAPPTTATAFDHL
Chain of Cytochrome P450 2D6 (P10635 whole entry): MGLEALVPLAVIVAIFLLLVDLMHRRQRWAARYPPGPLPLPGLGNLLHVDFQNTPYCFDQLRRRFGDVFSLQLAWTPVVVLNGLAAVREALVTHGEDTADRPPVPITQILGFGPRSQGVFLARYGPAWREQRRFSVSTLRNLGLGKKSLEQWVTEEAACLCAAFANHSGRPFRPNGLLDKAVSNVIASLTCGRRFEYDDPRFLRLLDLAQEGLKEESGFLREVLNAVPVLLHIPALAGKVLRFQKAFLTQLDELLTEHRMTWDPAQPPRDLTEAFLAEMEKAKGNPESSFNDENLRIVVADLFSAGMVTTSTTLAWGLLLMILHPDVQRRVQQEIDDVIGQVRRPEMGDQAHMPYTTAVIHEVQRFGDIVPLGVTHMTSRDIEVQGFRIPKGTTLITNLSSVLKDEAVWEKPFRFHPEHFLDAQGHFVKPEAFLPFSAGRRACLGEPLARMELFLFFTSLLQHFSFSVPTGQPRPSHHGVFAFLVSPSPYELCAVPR
Chain of Cytochrome P450 3A4 (P08684 whole entry): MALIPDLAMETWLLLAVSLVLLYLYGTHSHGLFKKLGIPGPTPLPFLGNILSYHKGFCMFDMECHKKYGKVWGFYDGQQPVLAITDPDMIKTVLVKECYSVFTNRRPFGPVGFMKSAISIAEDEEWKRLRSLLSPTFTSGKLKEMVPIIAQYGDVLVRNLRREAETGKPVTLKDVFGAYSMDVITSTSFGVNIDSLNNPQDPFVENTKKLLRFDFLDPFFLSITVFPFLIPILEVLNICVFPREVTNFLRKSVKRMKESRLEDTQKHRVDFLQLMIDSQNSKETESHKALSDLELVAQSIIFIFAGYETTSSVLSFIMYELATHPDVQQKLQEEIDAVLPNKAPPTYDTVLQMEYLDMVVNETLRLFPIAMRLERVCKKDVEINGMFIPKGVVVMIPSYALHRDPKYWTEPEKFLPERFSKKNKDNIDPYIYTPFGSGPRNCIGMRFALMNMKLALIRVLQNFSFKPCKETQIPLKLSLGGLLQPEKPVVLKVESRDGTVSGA
Chain of Cytochrome P450 2C19 (P33261 whole entry): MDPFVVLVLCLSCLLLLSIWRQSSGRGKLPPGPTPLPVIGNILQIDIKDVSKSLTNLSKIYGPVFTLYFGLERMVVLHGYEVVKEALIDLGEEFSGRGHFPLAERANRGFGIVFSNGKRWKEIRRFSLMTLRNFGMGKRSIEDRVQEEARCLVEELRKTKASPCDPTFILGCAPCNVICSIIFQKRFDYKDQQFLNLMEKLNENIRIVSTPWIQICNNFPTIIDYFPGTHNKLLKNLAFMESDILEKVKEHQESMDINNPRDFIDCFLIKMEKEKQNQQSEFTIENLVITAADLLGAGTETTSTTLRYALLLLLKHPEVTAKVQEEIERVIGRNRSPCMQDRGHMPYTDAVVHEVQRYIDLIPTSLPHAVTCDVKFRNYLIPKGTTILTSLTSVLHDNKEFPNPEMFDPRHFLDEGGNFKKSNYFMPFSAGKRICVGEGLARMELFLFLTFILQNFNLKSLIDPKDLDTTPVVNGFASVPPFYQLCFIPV

Structure (SMILES): FC(F)(F)c1ccccc1-c1cc(NCCN2CCOCC2)ncn1
- AC50 [1]: 39.8 µM (inconclusive)
- AC50 [2]: 12.6 µM (inconclusive)

Structure (SMILES): CC1(C)Cc2c(C#N)c(NCC3CCCO3)nc(-c3ccco3)c2CO1 (stereo unspecified)
- IC50 [3]: > 47.1 µM (inactive)
- EC50 [4]: > 53 µM (inactive)

Structure (SMILES): CN(C)S(=O)(=O)c1cccc(NC(=O)CSc2nnnn2-c2ccccc2)c1
- EC50 [5]: > 112 µM (not active)
- EC50 [6]: > 112 µM (not active)

Structure (SMILES): CC(NC(=O)c1cccc(F)c1)C(c1cccs1)N1CCN(C)CC1 (stereo unspecified)
- AC50 [7]: 31.6 µM (inconclusive)
- AC50 [1]: 15.8 µM (inconclusive)
- AC50 [8]: 15.8 µM (inconclusive)

Structure (SMILES): CC(C)(C)C1CCc2c(sc(NC(=O)c3cc(C4CC4)on3)c2C#N)C1 (stereo unspecified)
- EC50 [5]: > 112 µM (not active)
- EC50 [6]: 23.1 µM (active)

Structure (SMILES): CC1C(C#N)=C(N)OC2=C1C(=O)CC(C)(C)C2 (stereo unspecified)
- EC50 [9]: > 120 µM (not active)
- EC50 [10]: > 120 µM (not active)
- EC50 [11]: 19.8 µM (active)

Structure (SMILES): CCOC(=O)C(NCCc1ccc(F)cc1)(NC(=O)CC)C(F)(F)F (stereo unspecified)
- AC50 [12]: > 260 µM (inactive)

Structure (SMILES): COc1cccc(-c2noc(C3CCCN(C(=O)c4ccccc4OC)C3)n2)c1 (stereo unspecified)
- EC50 [5]: > 112 µM (not active)
- EC50 [6]: > 112 µM (not active)

Structure (SMILES): CC(=O)OC(C)(C)/C=C/C(=O)C(C)(O)C1C(O)CC2(C)C3CC=C4C(CC(O)C(=O)C4(C)C)C3(C)C(=O)CC12C (stereo unspecified)
- AC50 [13]: < 0.26 µM (active)

Structure (SMILES): c1ccc(-[n+]2nc(Nc3cccc4ccccc34)sc2-c2c3ccccc3cc3ccccc23)cc1
- AC50 [12]: 3.17 µM (active)

Structure (SMILES): Nc1nnc(SCc2ccc(Cl)cc2)s1
- EC50 [5]: > 112 µM (not active)
- EC50 [6]: > 112 µM (not active)

Structure (SMILES): Cc1ccc(NC(=O)COC(=O)c2cccnc2Cl)cc1S(=O)(=O)N1CCOCC1
- IC50 [3]: > 47.1 µM (inactive)
- EC50 [4]: > 53 µM (inactive)

Structure (SMILES): COc1ccc2c(c1)O[C@@H](c1cccc(C(F)(F)F)c1)[C@H](O)C2=O
- EC50 [9]: > 120 µM (not active)
- EC50 [10]: > 120 µM (not active)
- EC50 [11]: > 120 µM (not active)

Structure (SMILES): CCN(CC)c1nc(O)nc(N(CC)CC)n1
- EC50 [9]: > 120 µM (not active)
- EC50 [10]: > 120 µM (not active)
- EC50 [11]: 44.7 µM (active)

Structure (SMILES): COc1ccc(NC(=O)Nc2ccc3c(c2)C(=O)N([C@@H](C)CO)C[C@@H](C)[C@@H](CN(C)CC2CCCCC2)OCCCC[C@@H](C)O3)cc1
- AC50 [13]: 14.5 µM (active)

Structure (SMILES): COC(=O)C1(C)CN(S(=O)(=O)c2ccc(C)cc2)c2cc(OC)ccc2C1=O (stereo unspecified)
- EC50 [5]: > 112 µM (not active)
- EC50 [6]: > 112 µM (not active)

Structure (SMILES): Cc1cc(=O)oc2cc(OCCSCCN3CCOCC3)ccc12
- EC50 [5]: > 112 µM (not active)
- EC50 [6]: > 112 µM (not active)

Structure (SMILES): COc1ccc(OC)c(-c2cc(C(=O)O)c3cc4ccccc4cc3n2)c1
- IC50 [3]: > 47.1 µM (inactive)
- EC50 [4]: > 53 µM (inactive)
- AC50 [14]: 3.16 µM (inconclusive)

Structure (SMILES): Cc1cc(Cl)ccc1OCc1cn2cccnc2n1
- EC50 [15]: > 160 µM (inactive)

Structure (SMILES): COc1ccccc1Nc1ccc(S(=O)(=O)N2CCCCC2)cc1[N+](=O)[O-]
- IC50 [3]: > 47.1 µM (inactive)
- EC50 [4]: > 53 µM (inactive)

Structure (SMILES): Cc1cc(NC(=O)c2c(F)cccc2F)n(-c2nc3ccccc3[nH]2)n1
- AC50 [1]: 39.8 µM (inconclusive)
- AC50 [8]: 3.55 µM (inconclusive)
- AC50 [14]: 4.47 µM (inconclusive)

Structure (SMILES): CC(C)(C)c1ccc(Oc2ccc(NC(=O)c3ccccc3C(=O)O)cn2)cc1
- EC50 [9]: 11 µM (active)
- EC50 [10]: 12 µM (active)
- EC50 [11]: 11.6 µM (active)

Structure (SMILES): CCOC(=O)c1ccc(NC(=O)CSc2nc3c(c(=O)n2C)SC(C)C3)cc1 (stereo unspecified)
- EC50 [5]: > 112 µM (not active)
- EC50 [6]: > 112 µM (not active)

Structure (SMILES): C[C@@H]1CN([C@@H](C)CO)C(=O)c2cc(NS(=O)(=O)c3ccccc3)ccc2O[C@@H](C)CCCCO[C@@H]1CN(C)Cc1ccc(C(F)(F)F)cc1
- AC50 [13]: 5.71 µM (active)

Structure (SMILES): CC(C)CNC(=O)COc1ccccc1[N+](=O)[O-]
- EC50 [5]: > 112 µM (not active)
- EC50 [6]: 18.7 µM (active)

Structure (SMILES): O=C(Oc1ccc([N+](=O)[O-])cc1)N1CCC(N2CCCCC2)CC1
- AC50 [1]: 39.8 µM (inconclusive)
- AC50 [2]: 20 µM (inconclusive)

Structure (SMILES): C=CCOc1c(CNc2cccc(C(=O)O)c2)cccc1OCC
- IC50 [3]: > 47.1 µM (inactive)
- EC50 [4]: > 53 µM (inactive)

Structure (SMILES): COCCn1c(SCc2nnc(-c3ccccc3)o2)nc2sc3c(c2c1=O)CCC3
- IC50 [3]: > 47.1 µM (inactive)
- EC50 [4]: > 53 µM (inactive)

Structure (SMILES): O=C(/C=C\C=C/c1ccc2c(c1)OCO2)N1CCCCC1
- AC50 [1]: 12.6 µM (inconclusive)

Structure (SMILES): O=C1[C@@H]2[C@@H](C(=O)N1c1ccc(OCc3ccccc3)cc1)[C@@H]1c3ccccc3[C@@H]2[n+]2ccccc21
- AC50 [1]: 3.98 µM (inconclusive)

Structure (SMILES): COCCn1c(=O)c(-c2ccc(F)cc2)nc2cnc(N(C)C)nc21
- AC50 [1]: 0.631 µM (inconclusive)
- AC50 [14]: 12.6 µM (inconclusive)

Structure (SMILES): C=CCO/C(O)=C1\C(C)=NC2(O)c3ccccc3C(=O)C12O (stereo unspecified)
- IC50 [3]: > 47.1 µM (inactive)
- EC50 [4]: > 53 µM (inactive)

Structure (SMILES): O=C(NCCc1csc(-c2cccnc2)n1)c1cccs1
- EC50 [5]: > 112 µM (not active)
- EC50 [6]: > 112 µM (not active)

Structure (SMILES): CN(C)P(=O)(NC(=O)c1cccn1C)N(C)C
- IC50 [3]: > 47.1 µM (inactive)
- EC50 [4]: > 53 µM (inactive)

Structure (SMILES): Cc1ccccc1N1CCN(C2CCCN(C(=O)c3cn4c(C)cccc4n3)C2)CC1 (stereo unspecified)
- IC50 [3]: > 47.1 µM (inactive)
- EC50 [4]: > 53 µM (inactive)

Structure (SMILES): COc1cccc(-c2noc(-c3cccnc3)n2)c1
- AC50 [1]: 20 µM (inconclusive)

Structure (SMILES): COc1cc(C#Cc2c(-c3ccccc3)n(C)c3ccccc23)cc(OC)c1
- IC50 [3]: > 47.1 µM (inactive)
- EC50 [4]: > 53 µM (inactive)

Structure (SMILES): Cc1sc(NC(=O)c2ccco2)c(C(c2cccnc2)N2CCN(C)CC2)c1C (stereo unspecified)
- AC50 [1]: 12.6 µM (inconclusive)
- AC50 [14]: 2.82 µM (inconclusive)

Structure (SMILES): Cc1ccc(Cl)cc1NC(=O)c1ccc(Cn2cc(Cl)cn2)cc1
- EC50 [9]: 14.4 µM (active)
- EC50 [10]: 13.7 µM (active)
- EC50 [11]: 12.2 µM (active)

Structure (SMILES): Cc1nc2sccn2c(=O)c1S(=O)(=O)N1CCN(c2cccc(Cl)c2)CC1
- EC50 [5]: > 112 µM (not active)
- EC50 [6]: > 112 µM (not active)

Structure (SMILES): COC(=O)/C=C1/SC(NNC(=O)c2ccc(Cl)cc2Cl)=NC1=O
- IC50 [3]: > 47.1 µM (inactive)
- EC50 [4]: > 53 µM (inactive)
